From patent EP0593831A1, “Long-chain fatty alcohols as neurotrophic and memory improving agents” (MEDAFOR, priority 1992, dated 1994) come the findings set out here.

In this assay the test system is neurones de cortex. Nature of the assay: Survival of cortex neurons in primary culture. As to conditions: 10⁻⁵M; after 10 days of culture; versus control cells; p < 0,02, Student t (figure 3). Type of assay: cell-based, rat. The text has this:
Les dérivés de l'invention ont été testés sur des neurones du système nerveux central en culture primaire. Les cultures sont préparées à partir de cerveaux d'embryons de rats. Les neurones proviennent de l'une des trois zones cérébrales suivantes: le cortex à partir d'embryons de 14 jours, l'hippocampe et le septum à partir d'embryons de 18 jours. Les cellules sont ensemencées à faible densité (10⁵ cellules/lamelle) sur des lamelles prétraitées avec de la poly-L-lysine. Les cellules sont maintenues dans un milieu de culture chimiquement défini. Les dérivés testés sont ajoutés le premier jour de la mise en culture des cellules à des doses variant de 10⁻⁹ M à 10⁻⁴ M. Le changement de milieu se fait tous les quatre jours avec addition des composés à tester.
On suit la survie des neurones en culture à l'aide d'un microscope en contraste de phase. De manière générale, les cellules témoins dégénèrent après 11 jours de culture alors que le nombre de cellules survivantes est significativement élevé dans les cultures traitées avec les dérivés de l'invention.
A titre d'exemple, l'effet du composé A₁, sur la survie des neurones de cortex est représenté sur la figure 3. Ce graphique représente le nombre de neurones survivants après 10 jours de culture.

In the case of `CC1=C(CCCCCCCCCCCO)C(C)(C)CCC1` [composé A₁], the “nombre de neurones survivants” value is reported as “significativement augmenté”.
